From patent US20250144049A1, “METHODS, COMPOSITIONS, AND USES RELATED TO THE TREATMENT AND PREVENTION OF LEIGH SYNDROME” (Stealth BioTherapeutics Inc., priority 2023, published 2025)

Legend:
[1] = system: Healthy (GM08402) fibroblasts; assay: Erastin cytoprotection assay, healthy fibroblasts; type: cell-based, human; details: 24 hours; for protective effect compared among test articles: 2 μM erastin, FIG. 12
Experimental: (§1) Briefly, Healthy (GM08402) or Leigh (GM03672) fibroblasts were resuspended in assay medium, seeded at 10,000 cells per well in a clear, tissue cultured-treated, 96-well plate, and incubated at 37° C. overnight. Following the incubation, supernatant was manually aspirated from wells, taking care not to disrupt cells. Fibroblasts were co-treated in a final volume of 100 μL with 2 μM erastin (Millipore Corp., Cat #), 250 μM ferric ammonium citrate (FAC), 50 µM ascorbic acid (AA), and a titration of one of each of Compounds 1 to 4 or Vatiquinone ranging from 10 to 1000 nM. Following another 24-hour incubation at 37° C., cell viability was measured using the CellTiter-Glo Luminescent Cell Viability Kit (ProMega) per Manufacturer's instructions. Luminescence units were quantified by GEN5 software on a BioTek SYNERGY neo2 plate reader (LUM filter).
(§2) Briefly, erastin, like RSL3, is known to induce ferroptosis. […] Erastin was incubated with cell fibroblasts for 24 hours to induce ferroptosis. Cells were co-treated with each of Compounds 1 to 4, or Vatiquinone as the test articles. Test articles were administered at a range of concentrations to derive a curve. Cell viability was determined using a commercially available kit that measures ATP production. […] An increase in cell viability as determined by the assay is considered to be protective against ferroptosis.

[2] = system: rotenone-inhibited Complex I; assay: Complex I-bypass assay (high-resolution respirometry, O2 consumption); type: cell-based, human
Experimental: All high-resolution respirometry experiments were conducted using the Oroboros O2k-Fluorespirometer (Oroboros, Innsbruck, Austria). The Oroboros O2k-Fluorespirometer was calibrated daily using the air calibration protocol on DatLab 7.4 (Oroboros, Innsbruck, Austria). Prior to each experiment requiring the fluorescence module, the AmpR calibration protocol from DatLab 7.4 was used to calibrate the fluorescence signal. Initial data analysis, including setting of marks, was performed using DatLab 7.4.
Complex I-bypass activity was assessed using HRR to measure O2 consumption. […] Values were exported and analyzed using GraphPad Prism 9. […]
Statistical analysis was performed using GraphPad Prism 9. […] RET Assay data were analyzed by 2-way ANOVA using a p-value of 0.05.
Using this assay, the ability of Compounds 1 to 4 and Vatiquinone to bypass rotenone-inhibited Complex I was determined. […] The ability of Compounds 1 to 4 and Vatiquinone to “bypass” Complex I and restore OXPHOS is measured by an increase in oxygen consumption rate following addition of the compound to the chamber.
In executing this assay, in each instance, fibroblasts are added to each chamber of the Oroboros Oxygraph-2K (the “O2k”). […] The addition of rotenone is expected to cause a marked reduction of OXPHOS as measured by a decreased rate of oxygen consumption. […]

[3] = system: Leigh (GM03672) fibroblasts; assay: Erastin cytoprotection assay, Leigh fibroblasts; type: cell-based, human; details: 24 hours; for protective effect compared among test articles: 2 μM erastin, FIG. 13
Experimental: as §1, §2

[4] = system: Leigh syndrome (GM03672) fibroblasts; assay: RSL3 cytoprotection assay, Leigh fibroblasts; type: cell-based, human; details: for anti-ferroptosis properties compared among test articles: RSL3, 4 hours
Experimental: (§3) Patient fibroblasts were acquired from Coriell Institute for Medical Research (Camden, NJ, USA). GM03672 is an untransformed fibroblast cell line from a Leigh syndrome patient carrying an unknown mutation. GM08402 is an untransformed fibroblast from an apparently healthy individual. Cells were cultured at 37° C. at 5% CO2 in Eagle's Minimum Essential Medium (MEM, Corning), which was supplemented with Earle's salts and non-essential amino acids, 15% qualified fetal bovine serum, and 1% penicillin/streptomycin ([…]) to yield “Complete MEM.”
(§4) To initiate the RSL3 cytoprotection experiment, Healthy (GM08402) and Leigh syndrome (GM03672) fibroblasts were resuspended in Complete MEM. Cells were seeded at 10,000 cells per well in a clear, tissue cultured-treated, 96-well plate and incubated at 37° C. overnight. Following the incubation, supernatant was manually aspirated, taking care not to disrupt cells. […]. Luminescence units were quantified by GEN5 software on a BioTek SYNERGY neo2 plate reader (LUM filter).
(§5) RSL3 is an inhibitor of the enzyme glutathione peroxidase 4 (GPX4), which decreases lipid peroxides. RSL3 inhibition of GPX4 induces ferroptosis through iron-dependent accumulation of lipid ROS. In this assay, Healthy or Leigh fibroblasts were treated for 4 hours with RSL3 to induce ferroptosis or left untreated. Endogenous ATP levels were measured as an indicator of cellular viability using a commercially available kit (CellTiter-Glo® 2.0 Cell Viability Assay (Promega)).
(§6) […]. […] Briefly, ferroptosis was induced with 1 μM RSL3 in healthy fibroblast cells and 375 nM RSL3 in fibroblasts from a patient with Leigh syndrome.
(§7) A preliminary experiment was performed to determine the effect of RSL3 injury on the fibroblasts of a healthy individual (cell line: GM08402) and the fibroblasts of a patient diagnosed with Leigh syndrome (cell line: GM03672).

[5] = system: Healthy (GM08402) fibroblasts; assay: RSL3 cytoprotection assay, healthy fibroblasts; type: cell-based, human
Experimental: as §3, §4, §5, §6, §7

15-lipoxygenase (15-LO) [6] = assay: 15(S)-HETE ELISA following RSL3 treatment, Leigh fibroblasts; type: cell-based, human; details: 700 nM RSL3, 1 μM compound, FIG. 11
Experimental: (§8) Samples for the 15(S)-HETE ELISA were generated by the RSL3 cytoprotection assay described above. Healthy or Leigh fibroblasts were resuspended in assay medium, seeded at 200,000 cells per well in a clear, tissue culture-treated, 24-well plate. Cells were incubated at 37° C. for 24 hours. Supernatant was aspirated from each well following the incubation.
(§9) Fibroblasts from both a healthy individual and a patient diagnosed with Leigh syndrome were examined (but not all compounds were examined in each cell type). Activation of ferroptosis has been implicated as a driver of epilepsy, which is commonly associated with Leigh syndrome. […] Kahn-Kirby et al. PLOS One. […] As a key regulator of ferroptosis, 15-LO serves as a rational therapeutic target in Leigh syndrome.

15-lipoxygenase (15-LO) [7] = assay: 15(S)-HETE ELISA following erastin treatment, healthy fibroblasts; type: cell-based, human; details: erastin + FAC + AA, FIG. 14
Experimental: (§10) Samples for the 15(S)-HETE ELISA were generated by the Erastin Assay described above. Healthy or Leigh fibroblasts were resuspended in assay medium, seeded at 200,000 cells/well in a clear, tissue culture-treated, 24-well plate, and incubated at 37° C. for 24 hours. Supernatant was aspirated from each well.
(§11) Ferroptosis was induced using erastin at 2 μM concentration. 15(S)-HETE, which is a metabolite of arachidonic acid and generated by activity of 15-LO, was measured using a commercially available ELISA kit. Data were normalized to the “No treatment” group, which represented fibroblasts that were not injured with erastin.

[8] = Pharmacokinetics of Compound 2 after single intravenous, subcutaneous or oral administration; type: in vivo; details: rat, 1 mg/kg IV, 10 mg/kg SC, 10 mg/kg PO
Experimental: • Animals: Rat/Sprague Dawley/Male/Naive 225-250 grams were received from an approved vendor. • Animals were fasted overnight prior to dose administration. Food was returned following the 2 hour sample collection. • Body weights were recorded prior to dose administration. The volume of each dose delivered (ml/kg) was based on each individual animal's body weight. • This was a single dose, serial blood collection study with tissues collected for possible future analysis. • Doses were administered in accordance with test facility standard operating procedures. […].
b) Sample collection—Post Dosing: • Blood samples were collected via jugular vein catheter (JVC) and transferred to tubes with appropriate anticoagulant. The tubes were stored on wet ice until processed to plasma by centrifugation (3500 rpm at 5° C. for 10 minutes) within 20 minutes of collection. Sample aliquots of 100 μL were transferred into individual uniquely labeled matrix tubes containing 10 μL of 5% (v/v) formic acid aqueous solution and stored at nominal −80° C. until analyzed by LC/MS/MS. • Immediately following final serial blood collection (24 hours, JVC), animals were sacrificed and perfused with cold PBS. […]

15-lipoxygenase (15-LO) [9] = assay: 15(S)-HETE ELISA following RSL3 treatment, healthy fibroblasts; type: cell-based, human; details: 700 nM RSL3, 1 μM compound, FIG. 10
Experimental: as §8, §9

15-lipoxygenase (15-LO) [10] = assay: 15(S)-HETE ELISA following erastin treatment, Leigh fibroblasts; type: cell-based, human; details: erastin + FAC + AA, FIG. 15
Experimental: as §10, §11

[11] = tested in the clinic; cited from earlier work
[12] = pontocerebellar hypoplasia type 6, Kahn-Kirby et al.; cited from earlier work
[13] = 2 μM erastin + FAC + AA, compound 10-1000 nM

**Q.** With `COC1=C(OC)C(=O)C(CCCCCCCCCC(F)(F)F)=C(C)C1=O` [Compound 1] as the molecule, how does the “protective effect compared among test articles” value [1] read?
**A.** about equally protective

**Q.** What about the “oxygen consumption rate after rotenone inhibition” value ([2]; titrated into rotenone-inhibited Leigh fibroblasts, n=6) of the same molecule?
**A.** restored oxygen consumption rate in a dose-dependent manner

**Q.** What about the “protective effect compared among test articles” value [3] of the same molecule?
**A.** about equally protective

**Q.** And the “anti-ferroptosis properties compared among test articles” value ([4]; FIG. 9)?
**A.** roughly equivalent

**Q.** What about the “anti-ferroptosis properties compared among test articles” value ([5]; 1 μM RSL3, 4 hours, FIG. 8) of the same molecule?
**A.** roughly equivalent

**Q.** And the “15-LO inhibition compared among test articles” value (15-lipoxygenase (15-LO) [6])?
**A.** superior to Compounds 2, 3 and 4

**Q.** Which “15-LO inhibition compared among test articles” value (15-lipoxygenase (15-LO) [7]) does the source give for `CC1=C(C)C(=O)C(CC[C@@](C)(O)CC/C=C(\C)CCC=C(F)F)=C(C)C1=O` [Compound 2] here?
**A.** slightly less effective

**Q.** And the tolerability [8]?
**A.** well tolerated

**Q.** And the “delivery by mode of administration” value ([8]; preliminary)?
**A.** effectively administered

**Q.** And the “protective effect compared among test articles” value [1]?
**A.** superior in their protective effect

**Q.** What about the “inhibition of 15-lipoxygenase (15(S)-HETE in supernatant)” value (15-lipoxygenase (15-LO) [9]; 24 hours) of the same molecule?
**A.** inhibited 15-lipoxygenase

**Q.** What about the “15-lipoxygenase inhibition compared among test articles” value (15-lipoxygenase (15-LO) [9]) of the same molecule?
**A.** roughly equivalent protective effect

**Q.** And the “protective effect compared among test articles” value [3]?
**A.** superior in their protective effect

**Q.** What about the “anti-ferroptosis properties compared among test articles” value ([4]; FIG. 9) of the same molecule?
**A.** superior to Compounds 1, 4 and Vatiquinone

**Q.** And the “anti-ferroptosis properties compared among test articles” value ([5]; 1 μM RSL3, 4 hours, FIG. 8)?
**A.** superior to Compounds 1, 4 and Vatiquinone

**Q.** What about the “15-LO inhibition compared among test articles” value (15-lipoxygenase (15-LO) [6]) of the same molecule?
**A.** roughly equivalent protective effect

**Q.** What about the “15-LO inhibition compared among test articles” value (15-lipoxygenase (15-LO) [10]) of the same molecule?
**A.** slightly less effective

**Q.** What does the source list for `COC(=O)c1ccc([C@H]2c3[nH]c4ccccc4c3C[C@H](C(=O)OC)N2C(=O)CCl)cc1` [RSL3, (1S,3R)-Methyl 2-(2-chloroacetyl)-2,3,4,9-tetrahydro-1-[4-(methoxycarbonyl)phenyl]-1H-pyrido[3,4-b]indole-3-carboxylate, reference compound]?
**A.** concentration sufficient for 25-30% killing of cells ([4]; Leigh fibroblasts, FIG. 7): 700 nM; concentration sufficient for 25-30% killing of cells ([5]; healthy fibroblasts, FIG. 7): 1 µM

**Q.** What does the source list for `CC(C)=CCC/C(C)=C/CC/C(C)=C/CC[C@@](C)(O)CCC1=C(C)C(=O)C(C)=C(C)C1=O` [Vatiquinone, reference compound]?
**A.** protective effect against erastin induced ferroptosis (cell viability, ATP) [1, 13]: protective effect; protective effect compared among test articles [1]: about equally protective; clinical results in Leigh syndrome [11]: disappointing; Complex I by-pass activity ([2]; concentrations from 125 nM to 8 μM): inactive; seizure frequency and morbidity [12]: decrease seizure frequency and morbidity; protective effect against erastin induced ferroptosis (cell viability, ATP) [3, 13]: protective effect; protective effect compared among test articles [3]: superior in its protective effect as compared with Compounds 1 and 4; protective effect against RSL3 induced ferroptosis (cell viability, ATP) ([4]; 375 nM RSL3, 4 hours, compound 10-1000 nM, FIG. 9): protective effect; anti-ferroptosis properties compared among test articles ([4]; FIG. 9): roughly equivalent; anti-ferroptosis properties compared among test articles ([5]; 1 μM RSL3, 4 hours, FIG. 8): roughly equivalent; protective effect against RSL3 induced ferroptosis (cell viability, ATP) ([5]; 1 μM RSL3, 4 hours, compound 10-1000 nM, FIG. 8): protective effect
